Test results reported in patent US20030114530A1, “Remedies for degenerative arthritis” (priority 2000, published 2003).
Entries after “also recorded” stand apart in the source; their conditions may differ.

How the values were obtained:
[1] = test system: model of OA in rabbits; settings: Inflamm Res 44, Suppl 2, S117-118 (1995); cited from earlier work
[2] = test system: partial meniscectomy model of osteoarthritis rabbits; assay: partial meniscectomy model of osteoarthritis in rabbits; type: in vivo, rabbit
Experimental: The effect of the compound on osteoarthritis invented in this study was confirmed by the experiments of a partial meniscectomy model in rabbits.
Female rabbits (Kbs: NZW(Healthy)) were bred for one week before the experiments. The animals were subjected to OA model according to following method.
Each animal was anesthetized with a subcutaneous injection of xylazine (0.05 ml/kg) and an intravenous injection of sodium pentobarbital (20 mg/kg). Right hind knee was shaved, and the width of the knee was measured with the micrometer caliper. It was disinfected with iodine solution. If required local anesthesia was performed with lidocaine hydrochloride.
The skin and articular capsule around right knee were incised at right angle to patellar ligament, the fibular collateral and sesamoid ligament were transected with blades. Adrenaline solution was dropped for the arrest of hemorrhage. The lateral meniscus was partially removed. After washing the operated area with saline solution, the synovium and articular capsule were stitched together. Then muscular coat and skin were put in a suture. […]
After anesthesia with sodium pentobarbital (40 mg/kg), the hind knee was shaved and the width of them was measured with a micrometer caliper. […] After masking, the area of erosion was measured. […]

SMILES | effect on a model of OA [1] | erosion area of femur ([2]; 10, 30, 100 or 300 mg/kg twice a day, oral, 7 days after meniscectomy, FIG. 1) | efficacy in the partial meniscectomy OA model ([2]; rabbits, oral twice a day)
COc1ccc(S(=O)(=O)N(Cc2cccnc2)[C@@H](C(=O)NO)C(C)C)cc1.Cl [CGS-27023A, 2(R)-[N-(4-methoxyphenylsulfonyl)-N-(3-pyridylmethyl)amino]-3-methylbutanohydroxamic acid hydrochloride] | effected on a model of OA in rabbits |  | 
CCOCOC[C@H](C[C@H](C)C(=O)NO)NC(=O)c1ccc(Oc2ccccc2)cc1 [compound of formula (I), N-hydroxy-5-ethoxymethyloxy-2(S)-methyl-4(S)-(4-phenoxybenzoyl)aminopentanamide] |  | decreasing effect | shows an efficiency; also recorded: high-effectivity
